Patent publication US20130029942A1, “COMPOUNDS AND THERAPEUTICAL USES THEREOF” (Myrexis, Inc., priority 2003, published 2013)
Where a name gives a salt, the structure may show the parent alone. Read-outs that look alike come from different tables or passages of the source.

How the values were obtained:
[1] = test system: P388/ADR cells; test: Cytotoxicity (ATP-lite cell viability), MDR-1 over-expressing P388/ADR; type: cell-based; details: Mus musculus, 72 hours
Protocol: (§1) Cytotoxicity of compounds in multidrug resistant cells can be determined by administering compounds to cell lines that overexpress the multidrug resistance pump MDR-1 and determining the viability of the cell lines.
(§2) NCI-ADR/Res, MCF-7, P388, and P388/ADR cell lines were obtained from American Type Culture Collection (Manassas, Va.) and maintained in RPMI-1640 media supplemented with 10% FCS, 10 units/ml penicillin and streptomycin, 2 mM Glutamax and 1 mM sodium pyruvate (Invitrogen Corporation, Carlsbad, Calif.). For compound testing, cells were plated in 96 well dishes at a concentration of 1.5×10^4 cells/well. Cells were allowed to adhere to the plate overnight and then incubated with compounds at final concentrations ranging from 0.13 nM to 10 uM for 72 hours. Cell viability was then assessed using the ATP-lite reagent (Perkin Elmer, Foster City, Calif.). Plates were read on a Wallac Topcount luminescence reader (Perkin Elmer, Foster City, Calif.) and the results graphed in Prism software (Graphpad Software, Inc., San Diego, Calif.). Non-linear regression with variable slope analysis was performed to obtain IC50 concentration values.
(§3) Example 1 compound, docetaxel, and vinblastine were tested for their ability to kill multidrug resistant cells by administering the compounds to NCI-ADR/Res, MCF-7 cells, P388 and P388/ADR cells and determining the viability of the cells.

[2] = test system: NCI-ADR/Res cells; test: Cytotoxicity (ATP-lite cell viability), MDR-1 over-expressing NCI-ADR/Res; type: cell-based; details: Homo sapiens, 72 hours
Protocol: as §1, §2, §3

[3] = test system: MCF-7 cells; test: Cytotoxicity (ATP-lite cell viability), MCF-7; type: cell-based; details: Homo sapiens, MCF7; MCF-7, 72 hours
Protocol: as §1, §2, §3

[4] = test system: P388 cells; test: Cytotoxicity (ATP-lite cell viability), P388; type: cell-based, murine; details: Mus musculus; P388, 72 hours
Protocol: as §1, §2, §3

[5] = test system: T-47D cells; test: Caspase cascade activation / induction of apoptosis in T-47D cells (fluorogenic N-(Ac-DEVD)-N'-ethoxycarbonyl-R110 substrate); type: cell-based, human; details: Homo sapiens, T47D
[6] = biological target: tubulin (Bos taurus, UniProt P81947+Q6B856); test: Inhibition of tubulin polymerization (DAPI fluorescence); type: biochemical; details: MAP-rich tubulin, 30 minutes at 37° C.
Protocol: Lyophilized tubulin (Cytoskeleton #ML113, 1 mg, MAP-rich) was assayed for the effect of the test compound on tubulin polymerization as measured by change in fluorescence for 4′,6-diamidino-2-phenylindole (DAPI) (Barron, D. M. et al. Analytical Biochem., 2003, 315, 49-56). 1 μl of serial dilutions of each test compound (from 100×DMSO stock) was added in 96 well plate format and preincubated for 30 minutes with 94 ul of the non-GTP supplemented tubulin supernatant. 5 μl of DAPI/GTP solution was added to initiate polymerization and incubated for 30 minutes at 37° C. Fluorescence was read with excitation 350 nm, emission wavelength 485 nm on a Tecan Spectraflour Plus. Polymerized tubulin (DMSO and with the tubulin stabilizer Taxol® (paclitaxel)) gives a higher DAPI fluorescence as compared to non-polymerized tubulin (vinblastine and colchicine used to determine baseline).

[7] = test system: DLD cells; test: Inhibition of cell proliferation (GI50), CellTiter-Glo, DLD; type: cell-based; details: Homo sapiens; DLD, 48 h; read-out: GI50
Protocol: (§4) T-47D, DLD, H1299, MX-1 and SW620 cells were grown and harvested as in Example 262. […] An aliquot of 45 μL of cells was added to a well of a 96-well microtiter plate containing 5 μL of a 10% DMSO in RPMI-1640 media solution without compound as the control sample for maximal cell proliferation (Lmax). The samples were mixed by agitation and then incubated at 37° C. for 48 h in a 5% CO2—95% humidity incubator. After incubation, the samples were removed from the incubator and 25 μL of CellTiter-Glo™ reagent (Promega) was added. The samples were mixed by agitation and incubated at room temeperature for 10-15 min. Plates were then read using a luminescent plate reader (Model SPECTRAfluor Plus, Tecan) to give Ltest values.
(§5) The samples were mixed by agitation and then incubated at 37° C. for 0.5 h in a 5% CO2—95% humidity incubator. After incubation, the samples were removed from the incubator and 25 μL of CellTiter-Glo™ reagent (Promega) was added. The samples were mixed by agitation and incubated at 37° C. for 10-15 min at room temperature in a 5% CO2—95% humidity incubator. Fluorescence was read as above, (LStart) defining luminescence for initial cell number used as baseline in GI50 determinations.

[8] = test system: H1299 cells; test: Inhibition of cell proliferation (GI50), CellTiter-Glo, H1299; type: cell-based; details: Homo sapiens, NCI-H1299, 48 h; read-out: GI50
Protocol: as §4, §5

[9] = test system: MX-1 cells; test: Inhibition of cell proliferation (GI50), CellTiter-Glo, MX-1; type: cell-based; details: Homo sapiens, MX1; MX-1, 48 h; read-out: GI50
Protocol: as §4, §5

[10] = test system: SW620 cells; test: Inhibition of cell proliferation (GI50), CellTiter-Glo, SW620; type: cell-based; details: Homo sapiens, SW-620; SW620, 48 h; read-out: GI50
Protocol: as §4, §5

[11] = test system: T-47D cells; test: Inhibition of cell proliferation (GI50), CellTiter-Glo, T-47D; type: cell-based; details: Homo sapiens, T47D; T-47D, 48 h; read-out: GI50
Protocol: as §4, §5

[12] = test system: P388 murine leukemia cell line; test: P388 cytotoxicity (ATP-Lite, 72 hours); type: cell-based; details: Mus musculus, P388, 72 hours
[13] = T-47D, 24 hr, read-out: T-47D (24 hr) EC50
[14] = Table III, time not given, repeats 24 hr or 48 hr T-47D values of Table I, read-out: Caspase activation (EC50 nM)
[15] = 24 h, read-out: T-47D (24 hr) EC50 (nM)
[16] = read-out: Caspase activation (EC50 nM)
[17] = T-47D, 48 hr, read-out: T-47D (48 hr) EC50

Sequence of tubulin (P81947 whole entry): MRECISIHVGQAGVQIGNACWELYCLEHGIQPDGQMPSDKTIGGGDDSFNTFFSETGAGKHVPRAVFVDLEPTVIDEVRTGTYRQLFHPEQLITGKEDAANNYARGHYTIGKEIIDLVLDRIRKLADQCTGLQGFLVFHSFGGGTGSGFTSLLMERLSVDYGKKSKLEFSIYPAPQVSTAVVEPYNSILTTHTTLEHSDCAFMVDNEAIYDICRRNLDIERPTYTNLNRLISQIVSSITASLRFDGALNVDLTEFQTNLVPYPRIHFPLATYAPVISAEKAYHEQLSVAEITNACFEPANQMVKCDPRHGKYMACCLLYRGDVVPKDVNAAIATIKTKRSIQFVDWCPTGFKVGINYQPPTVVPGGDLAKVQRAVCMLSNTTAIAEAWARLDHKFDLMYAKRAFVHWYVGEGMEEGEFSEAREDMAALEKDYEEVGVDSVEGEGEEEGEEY
Sequence of tubulin (Q6B856 whole entry): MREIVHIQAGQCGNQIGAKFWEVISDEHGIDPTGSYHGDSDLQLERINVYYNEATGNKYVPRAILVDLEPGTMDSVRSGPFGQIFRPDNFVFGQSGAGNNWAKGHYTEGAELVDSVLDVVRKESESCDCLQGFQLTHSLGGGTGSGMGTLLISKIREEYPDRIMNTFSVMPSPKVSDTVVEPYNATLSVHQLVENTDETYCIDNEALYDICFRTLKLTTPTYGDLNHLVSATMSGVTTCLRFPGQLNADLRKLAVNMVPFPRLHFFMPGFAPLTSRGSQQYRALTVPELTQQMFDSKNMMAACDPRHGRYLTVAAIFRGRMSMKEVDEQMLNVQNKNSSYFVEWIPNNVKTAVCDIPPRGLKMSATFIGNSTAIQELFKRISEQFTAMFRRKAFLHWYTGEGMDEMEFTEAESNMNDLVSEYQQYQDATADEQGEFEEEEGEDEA

Compound	EC50 [5, 13] [nM]	EC50 [5, 14] [nM]	IC50 [6] [µM]	EC50 [5, 17] [nM]	IC50 [12] [nM]	further results
CC(=O)O[C@@]12CO[C@@H]1C[C@H](O)[C@@]1(C)C(=O)[C@H](O)C3=C(C)[C@@H](OC(=O)[C@H](O)[C@@H](NC(=O)OC(C)(C)C)c4ccccc4)C[C@@](O)([C@@H](OC(=O)c4ccccc4)[C@H]21)C3(C)C [Docetaxel, docetaxel]						IC50 [1]: 127 nM; IC50 [2]: 410 nM; IC50 [3]: 2 nM; IC50 [4]: 7 nM
Cc1ccc(N(C)c2nc(Cl)nc3ccccc23)cc1 [Example 2, (2-Chloro-quinazolin-4-yl)-(4-methyl-phenyl)-methyl-amine]	31	31	3			
CN(c1ccccc1)c1nc(Cl)nc2ccccc12 [Example 6, (2-Chloro-quinazolin-4-yl)-phenyl-methyl-amine]			4			EC50 [5, 15]: 219 nM; EC50 [5, 16]: 219 nM
COc1ccc(Nc2nc(Cl)nc3ccccc23)cc1 [Example 7, (2-Chloro-quinazolin-4-yl)-(4-methoxy-phenyl)-amine]	> 10000	> 10000	> 50	> 10000		GI50 [7]: > 10000 nM; GI50 [8]: > 10000 nM; GI50 [9]: > 10000 nM; GI50 [10]: > 10000 nM; GI50 [11]: > 10000 nM
COc1ccc(N(C)c2nc(NC/C=C(\C)CCC=C(C)C)nc3ccccc23)cc1 [Example 13, N^2-(3,7-Dimethyl-octa-2,6-dienyl)-N^4-(4-methoxy-phenyl)-N^4-methyl-quinazoline-2,4-diamine]	260	260	6			
COc1ccc(N(C)c2nc(Cl)nc3cc(OC)c(OC)cc23)cc1 [Example 20, (2-Chloro-6,7-dimethoxyquinazolin-4-yl)-(4-methoxy-phenyl)-methyl-amine]	161	161	3			
COc1ccc(N(C)c2ncnc3c2CCCC3)cc1 [Example 25, (5,6,7,8-Tetrahydro-quinazolin-4-yl)-(4-methoxy-phenyl)-methyl-amine]		42	2	42		
COc1ccc(OC)c(Nc2nc(Cl)nc3ccccc23)c1 [Example 31, (2-Chloro-quinazolin-4-yl)-(2,5-dimethoxy-phenyl)-amine]	317	317	10	563		
COc1ccc(N(C)c2ncnc3ccccc23)cc1 [Example 34, (4-Methoxy-phenyl)-methyl-quinazolin-4-yl-amine]			1			
Cc1ccc(N(C)c2ncnc3ccccc23)cc1 [Example 35, (4-Methyl-phenyl)-methyl-quinazolin-4-yl-amine]	141	141	4			
COc1ccc(N(C)c2nc(Cl)nc3ccccc23)cn1 [Example 36, (2-Chloro-quinazolin-4-yl)-(6-methoxy-pyridin-3-yl)-methyl-amine]	6	6	< 1			GI50 [7]: 89 nM; GI50 [8]: 53 nM; GI50 [9]: 73 nM; GI50 [10]: 70 nM; GI50 [11]: 111 nM
COc1ccc(N(C)c2nc(Cl)nc3ccccc23)c(OC)c1 [Example 41, (2-Chloro-quinazolin-4-yl)-(2,4-dimethoxy-phenyl)-methyl-amine]		20	< 1	20		
COc1ccc(OC)c(N(C)c2nc(Cl)nc3ccccc23)c1 [Example 42, (2-Chloro-quinazolin-4-yl)-(2,5-dimethoxy-phenyl)-methyl-amine]	282	282	5	265		
COc1cccc(N(C)c2nc(Cl)nc3ccccc23)c1 [Example 43, (2-Chloro-quinazolin-4-yl)-(3-methoxy-phenyl)-methyl-amine]		34	2	34		
COc1ccccc1N(C)c1nc(Cl)nc2ccccc12 [Example 44, (2-Chloro-quinazolin-4-yl)-(2-methoxy-phenyl)-methyl-amine]		501	10	501		
COc1ccc(N(C)c2nccc3ccccc23)cc1 [Example 65, (Isoquinolin-1-yl)-(4-methoxy-phenyl)-methyl-amine]		599	10	599		
COc1ccc(N(C)c2nc(C)nc3ccccc23)cc1 [Example 72, (4-Methoxy-phenyl)-methyl-(2-methyl-quinazolin-4-yl)-amine hydrochloride]			< 1			EC50 [5, 15]: 2 nM; EC50 ([5]; 48 h, read-out: T-47D (48 hr) EC50 (nM)): 2 nM; EC50 [5, 16]: 2 nM
COc1c(Cl)cc(N(C)c2nc(CN)nc3ccccc23)cc1Cl [Example 254, (2-Aminomethyl-quinazolin-4-yl)-(3,5-dichloro-4-methoxy-phenyl)-methyl-amine bis(hydrochloride)]					5200	
COc1ccc(N(C)c2nc(CN3CCCC3=O)nc3ccccc23)cc1 [Example 255, 1-{4-[(4-Methoxy-phenyl)-methyl-amino]-quinazolin-2-ylmethyl}-pyrrolidin-2-one]					610	
COc1ccc(N(C)c2nc(CNCCCO)nc3ccccc23)cc1 [Example 256, 3-({4-[(4-Methoxy-phenyl)-methyl-amino]-quinazolin-2-ylmethyl}-amino)-propan-1-ol]					1800	
CCOc1c(Cl)cc(N(C)c2nc(CCl)nc3ccccc23)cc1Cl [Example 257, (2-Chloromethyl-quinazolin-4-yl)-(3,5-dichloro-4-ethoxy-phenyl)-methyl-amine]					2400	
CCOc1ccc(N(C)c2nc(CCl)nc3ccccc23)cc1Cl [Example 258, (3-Chloro-4-ethoxy-phenyl)-(2-chloromethyl-quinazolin-4-yl)-methyl-amine]					15	
COc1ccc(N(C)c2nc(C)nc3ccc(CN)cc23)cc1 [Example 259, (6-Aminomethyl-2-methyl-quinazolin-4-yl)-(4-methoxy-phenyl)-methyl-amine]					773	
CCOc1ccc(N(C)c2nc(CN3C(=O)c4ccccc4C3=O)nc3ccccc23)cc1Cl [Example 260, 2-{4-[(3-Chloro-4-ethoxy-phenyl)-methyl-amino]-quinazolin-2-ylmethyl}-isoindole-1,3-dione]					469	
CCOc1ccc(N(C)c2nc(CN)nc3ccccc23)cc1Cl [Example 261]					9	
